Data on 14 compounds can be found in paper PMC3866116 (PLoS ONE, 2013).

Where two headings read alike, the source gives them in different places. Some results are limits rather than exact numbers.

Data set [1] concerns HCV subgenomic replicon RNA of genotype 1b strain Con1. The experiment in a line: Drug combination analysis (CalcuSyn) in Con1 LUN Sb #26 replicon cells. The format is cell-based, hepatitis C virus. The settings on record: 72 h; for effect of combination with compound 10 on inhibition of HCV replication (combination index at EC50, EC75, EC90): CI <0.9 synergy, 0.9 to 1.1 additivity, >1.1 antagonism; for isobologram: location of calculated EC90 plots for combination with compound 10: under additive line = synergy, above = antagonism. The protocol:
(§1) The replicon cells were seeded at 2×10^4 cells per well in a 48-well plate 24 h before treatment. […] The resulting cells were harvested 72 h post-treatment and lysed with cell culture lysis reagent (Promega, Madison, WI). The luciferase activity of each cell lysate was estimated using a luciferase assay system (Promega). The resulting luminescence was detected by a Luminescencer-JNR AB-2100 (ATTO, Tokyo, Japan).
The effects of drug-drug combinations were evaluated by using the Con1 LUN Sb #26 replicon cells, and were analyzed by using the computer software CalcuSyn (Biosoft, Cambridge, United Kingdom). Dose inhibition curves of two different drugs were plotted with each other. In each drug combination, EC90 values of several combinations of two different drugs were plotted as the fractional concentration (FC) of both drugs on the x and y-axes. Additivity indicates the line linked between 1.0 FC value points of both drugs in the absence of each other. Synergy and antagonism are indicated by values plotted under and above, respectively, an additivity line. The explanatory diagram of isobologram is shown in a right end of lower panels of Figure 5A. Combination indexes (CIs) were calculated at the EC50, EC75, and EC90 by using CalcuSyn. A CI value of less than 0.9 indicates synergy. A CI value ranging from 0.9 to 1.1 indicates additivity. A CI value of more than 1.1 indicates antagonism. The explanatory diagram was shown in a right end of lower panels of Figure 5B.

Data set [2] is described as follows: Cytotoxicity (MTS assay) in Huh7/Rep-Feo replicon cells. The format is cell-based. The settings on record: human, Huh7/Rep-Feo cells, MTS, read-out: CC50, fifty percent cytotoxicity concentration based on the reduction in cell viability. The protocol:
(§2) The replicon cells were seeded at a density of 1×10^4 cells per well in a 96-well plate and then incubated at 37°C for 24 h. […] Cell viability was measured using a dimethylthiazol carboxymethoxy-phenylsulfophenyl tetrazolium (MTS) assay with a CellTiter 96 aqueous one-solution cell proliferation assay kit (Promega).
A general note: Tetrazolium dyes change colour on reduction, which living cells bring about.

The subject of data set [3] is HCV subgenomic replicon RNA of genotype 1b strain N (Huh7/Rep-Feo cells). The experiment in a line: Luciferase assay in HCV subgenomic replicon cell line Huh7/Rep-Feo. The settings on record: Huh7/Rep-Feo, strain N (1b); for EC50: subgenome, 72 h, read-out: EC50, fifty percent effective concentration based on the inhibition of HCV replication. The format is cell-based, hepatitis C virus. The protocol: The Huh7/Rep-Feo cell line, which harbors the subgenomic replicon RNA composed of HCV IRES, the gene of the fusion protein consisting of neomycin phosphotransferase and firefly luciferase, EMCV IRES and a nonstructural gene of genotype 1b strain N in order in Huh7 cell line, was previously established. Thus, the luciferase activity corresponds to the level of HCV RNA replication. The cell line was maintained in Dulbecco's modified Eagle medium containing 10% fetal calf serum and 0.5 mg/mL G418 and cultured in absence of G418 when they were treated with compounds. The Lunet/Con1LUN Sb #26 cell line, which harbors the subgenomic replicon RNA of the Con1 strain (genotype 1b), was described previously. The OR6 cell line, which harbors the full genomic replicon RNA of the O strain (genotype 1b), was described previously. The HCV replicon cell line derived from the genotype 2a strain JFH1 was described previously. The viral RNA derived from the plasmid pJFH1 was transcribed and introduced into Huh7OK1 cells according to the method of Wakita et al.. The virus was amplified by the several times passages. The cells were infected with the virus at a multiplicity of infection (moi) of 1 and then treated with each compound at 24 h post-infection. The culture supernatants were harvested 72 h post-treatment to estimate the viral RNA as described below.
as §1
In general terms: Replicon systems follow genome replication, usually without infectious particles.

For a further data set, the system named is Huh7/Rep-Feo cells. The experiment in a line: Cytotoxicity (MTS assay) in Huh7/Rep-Feo replicon cells. The settings on record: Huh7/Rep-Feo cells, 72 h, MTS; read-out: CC50, fifty percent cytotoxicity concentration based on the reduction in cell viability. The format is cell-based. As to the method: as §2
The next data set concerns ISRE-promoter activity. The experiment in a line: ISRE reporter assay in Huh7 OK1 cells. The settings on record: 48 h of treatment, interferon alpha 2b as positive control. The format is cell-based. In general terms: A reporter such as luciferase makes a cellular process visible.

For the compound `CC(C)(C)OC(=O)N[C@H]1CCCCC/C=C\[C@@H]2C[C@@]2(C(=O)NS(=O)(=O)C2CC2)NC(=O)[C@@H]2C[C@@H](OC(=O)N3Cc4cccc(F)c4C3)CN2C1=O` [danoprevir], in data set [1], the “effect of combination with compound 10 on inhibition of HCV replication (combination index at EC50, EC75, EC90)” value was “antagonistic to additive effect” and the “isobologram: location of calculated EC90 plots for combination with compound 10” value is given as “above the additive line”.
Turning to `CCCCCCCCOC(=O)C=Cc1cc(O)c(O)c(O)c1` [Compound 16, 3,4,5-Trihydroxycinnamic acid n-octyl ester], the CC50 at 72 h in data set [2] (Huh7/Rep-Feo replicon cells) amounted to 59.8 ± 6.9 µM. Also, in data set [3] (Hepatitis C virus, Huh-7), the EC50 came to 36.3 ± 2.9 µM. For the same compound, the “SI, selectivity index (CC50/EC50)” value in data set [3] is recorded as 1.6.
In the case of `COC(=O)CCc1ccc(O)c(O)c1` [Compound 12, Dihydrocaffeic acid methyl ester], the CC50 in the data set with Huh7/Rep-Feo cells was determined as 141 ± 3.4 µM. In addition, the EC50 in data set [3] was 77 ± 1.6 µM.
With `CCC[C@H](NC(=O)[C@@H]1[C@H]2CCC[C@H]2CN1C(=O)[C@@H](NC(=O)[C@@H](NC(=O)c1cnccn1)C1CCCCC1)C(C)(C)C)C(=O)C(=O)NC1CC1` [telaprevir], in data set [1], the “effect of combination with compound 10 on inhibition of HCV replication (combination index at EC50, EC75, EC90)” value is on record as “antagonistic effect” and the “isobologram: location of calculated EC90 plots for combination with compound 10” value is reported as “above the additive line”.
Turning to `CCCCCCCCOC(=O)/C=C/c1ccc(O)c(OC)c1` [Compound 13, 3-O-methylcaffeic acid n-octyl ester], the CC50 at 72 h in data set [2] (Huh7/Rep-Feo replicon cells) amounted to 60.3 ± 1.6 µM. The EC50 in data set [3] (Hepatitis C virus, Huh-7) amounted to 10.2 ± 1.1 µM. Further, the “SI, selectivity index (CC50/EC50)” value in data set [3] stood at 5.9.
`COC(=O)/C=C/c1ccc(O)c(O)c1` [Compound 7, caffeic acid methyl ester]: the CC50 in the data set on Huh7/Rep-Feo cells stood at 122 ± 5 µM. Also, the EC50 in data set [3] stood at 28.6 ± 1.2 µM.
On to `CC(C)(C)C#Cc1cc(N(C(=O)[C@H]2CC[C@H](C)CC2)[C@H]2CC[C@H](O)CC2)c(C(=O)O)s1` [VX-222], for which, in data set [1], the “effect of combination with compound 10 on inhibition of HCV replication (combination index at EC50, EC75, EC90)” value was “additive to synergistic effect” and the “isobologram: location of calculated EC90 plots for combination with compound 10” value is recorded as “under the additive line”.
As for `O=C(/C=C/c1ccc(O)c(O)c1)O[C@H](Cc1ccc(O)c(O)c1)C(=O)O` [Compound 6, Rosmarinic acid], the “effect on ISRE-promoter activities” value in the data set with ISRE-promoter activity is “no significant effects”. Besides, the CC50 at 72 h in data set [2] was above 320 µM. Also, in data set [3] (Hepatitis C virus, Huh-7), the EC50 stood at 110 ± 1.1 µM. Also, the “SI, selectivity index (CC50/EC50)” value in data set [3] is recorded as above 2.9.
As for `O=C(/C=C/c1ccc(O)c(O)c1)O[C@@H]1C[C@](O)(C(=O)O)C[C@@H](O)[C@H]1O` [Compound 5, chlorogenic acid], in data set [2] (Huh7/Rep-Feo replicon cells), the CC50 at 72 h is above 320 µM. In data set [3] (Hepatitis C virus, Huh-7), the EC50 stood at 103 ± 3.4 µM. The “SI, selectivity index (CC50/EC50)” value in data set [3] is above 3.1.
As to `CCCCCCCCOC(=O)/C=C/c1ccc(OC)c(O)c1` [Compound 14, 4-O-methylcaffeic acid n-octyl ester], the CC50 at 72 h in data set [2] (Huh7/Rep-Feo replicon cells) was 59.2 ± 1.4 µM. For the same compound, the EC50 in data set [3] (Hepatitis C virus, Huh-7) turned out to be 19.6 ± 0.8 µM. In addition, the “SI, selectivity index (CC50/EC50)” value in data set [3] is on record as 3.
Turning to `O=C(O)/C=C/c1ccc(O)c(O)c1` [Compound 2, caffeic acid], the CC50 at 72 h in data set [2] (Huh7/Rep-Feo replicon cells) is above 320 µM. The EC50 in data set [3] (Hepatitis C virus, Huh-7) is 36.6 ± 6.7 µM. Further, in data set [3], the “SI, selectivity index (CC50/EC50)” value is above 8.7.
In the case of `O=C(C=Cc1ccccc1)OCCc1ccccc1` [Compound 4, Cinnamic acid phenethyl ester], the CC50 with Huh7/Rep-Feo cells is above 320 µM. For the same compound, in data set [3], the EC50 came out at 86.1 ± 6.3 µM.
In the case of `COC(=O)N[C@H](C(=O)N1CCC[C@H]1c1nc(-c2ccc(-c3ccc(-c4c[nH]c([C@@H]5CCCN5C(=O)[C@@H](NC(=O)OC)C(C)C)n4)cc3)cc2)c[nH]1)C(C)C` [daclatasvir], in data set [1], the “effect of combination with compound 10 on inhibition of HCV replication (combination index at EC50, EC75, EC90)” value is listed as “strong synergistic effect” and the “isobologram: location of calculated EC90 plots for combination with compound 10” value is “under the additive line”.
For the compound `COc1cc(/C=C/C(=O)O)ccc1O` [Compound 3, ferulic acid], the CC50 with Huh7/Rep-Feo cells was above 320 µM. Moreover, in data set [3], the EC50 turned out to be 71.9 ± 5.8 µM.
